The values that follow come from patent US20240051952A1, “HMOX1 INDUCERS” (Mitobridge Inc., priority 2019, published 2024).

One assay has as its system HMOX1 gene. In words: HMOX1 mRNA expression in HepG2 cells (Nanostring). The class given is cell-based, human. The settings on record: 24 hours treatment. The method, then: Example 147. HMOX1 Inducers of the Invention Strongly Increase In Vitro Expression of HMOX1
RNA Isolation and Quantification of Gene Expression
HepG2 cells were seeded at 250 k/well in 12-well tissue culture plates coated with collagen (collagen I, rat tail (thin plate coating); ENZO Life Sciences) for approximately 24 hours. The seeded cells were then treated with dose titration of the compound of Example 17 or dimethyl fumarate (DMF) (a Nrf2 activator; Fisher Scientific) via media change, with biological triplicates performed for each treatment. After approximately 24 hours of treatment, cells were visually inspected to confirm that no toxicity occurred with compound treatment. The treated cells were washed with PBS, aspirated, parafilmed and frozen at −80° C. prior to RNA isolation. RNA was isolated using Machery-Nagel isolation kit (NucleoSpin® RNA: catalog 740955.250) and then quantitated using ThermoFisher Nanodrop.
RNA was diluted for Nanostring gene expression analysis. […]
The relative mRNA levels of the HMOX1 gene in HepG2 cells treated with the compound of Example 17 or DMF were measured according to the methods described above. […]

The subject of the next assay is HbSS Townes sickle mice. Description: Heme-induced vaso-occlusion (stasis) in HbSS Townes sickle mice. The assay is classed as in vivo, mouse. The settings on record: 1 h after heme infusion. From the text:
Townes-SS mice were gavaged once daily with Vehicle or the compound of Example 17 for 8 days. After the last gavage dorsal skin-fold chambers were implanted on the mice and 20-22 flowing venules were selected and mapped in the subcutaneous skin using intravital microscopy. Mice were then infused via the tail vein with Panhematin (3.2 μmols heme/kg body weight). One hour after infusion each venule was re-examined for microvascular stasis (no flow) and data are expressed as % stasis. Stasis values are means+SD. One-Way ANOVA with Dunnett's Multiple comparison to Vehicle ****P<0.0001
Dosing Scheme of HMOX Inducers to HbSS Townes Sickle Mice
HbSS Townes sickle mice were oral gavaged once daily with Vehicle or the compound of Example 17 listed below for 8 days. To minimize experimental inconsistency, fresh formulation was prepared every day and vortexed prior to drawing test article into syringe for each dosing, and dosing was performed by the same individual throughout the day. The last-day dose was administered by oral gavage 4 hours prior to hemin infusion described below. • 1. Vehicle (0.5% w/v Tween 80 in 0.45% w/v methyl cellulose) • 2. the compound of Example 17 (10 mg/kg PO dosing) • 3. the compound of Example 17 (25 mg/kg PO dosing) • 4. the compound of Example 17 (50 mg/kg PO dosing)
Measurement of Vaso-Occlusion (Stasis)
Male and female sickle mice, approximately 12 weeks of age, were weighed before surgery. Animals were anesthetized with a mixture of ketamine (106 mg/kg) and xylazine (7.2 mg/kg) and dorsal skin-fold chambers (DSFCs) were surgically implanted. On the same day anesthetized mice were placed on a special intravital microscopy stage, and 20-22 flowing subcutaneous venules in the DSFC window were selected and mapped. After venule selection and mapping, hemin chloride (2.677 mM; Frontier Scientific), dissolved in sterile saline containing sodium carbonate (11.36 mM; Sigma-Aldrich) and D-sorbitol (9.59 mM; Sigma-Aldrich), was filtered (0.22 μm), diluted 1:10 in sterile saline (267.7 μM hemin, final) and infused into the tail veins of mice (0.012 ml/g, 3.2 μmols heme/kg body weight). All of the selected venules were re-examined at 1 h after hemin infusion, and the number of static (no flow) venules was counted and expressed as percent stasis. Four hours after hemin infusion, mice were euthanized in a CO2 atmosphere and the liver, spleen and kidneys were removed, flash frozen, and stored at −85° C.

The structures appear in SMILES notation. “Also recorded” adds a separate entry of the source.

For `Cn1c(Nc2nc3ccccc3o2)nc2cc(C(=O)NCCOCCO)ccc21` [Example 17, 2-(benzo[d]oxazol-2-ylamino)-N-(2-(2-hydroxyethoxy)ethyl)-1-methyl-1H-benzo[d]imidazole-5-carboxamide], the “HMOX1 expression, 30 μM compound of Example 17 relative to 250 μM DMF” value with HMOX1 gene was found to be 4 times. The “HMOX1 expression compared with DMF” value in the assay with HMOX1 gene (mRNA fold change vs DMSO) is given as “much more strongly than DMF”. The stasis is listed as around 17% in the assay on HbSS Townes sickle mice (10 mg/kg PO once daily 8 days), around 12% in the assay with HbSS Townes sickle mice (25 mg/kg PO once daily 8 days) and around 5% in the assay on HbSS Townes sickle mice (50 mg/kg PO once daily 8 days). In the assay on HbSS Townes sickle mice (10, 25, 50 mg/kg PO once daily 8 days), the “microvascular stasis vs Vehicle” value was “significantly reduced; also recorded: dose responsively inhibit microvascular stasis”.
